In ChEMBL document CHEMBL4308902, “Synthetic approaches to isocarbacyclin and analogues as potential neuroprotective agents against ischemic stroke” (Bioorg Med Chem, 2019):
Calls of active or inactive are those of the source. No cut-off for these calls is given here.

What was measured:
[1] = system: Cortical neurone; experiment: Neuroprotection in mouse embryonic cortical neurons assessed as reduction in glucose deprivation-induced cell death; type: functional, cell-based
[2] = system: Cortical neurone; experiment: Neuroprotection in mouse embryonic cortical neurons assessed as reduction in oxygen and glucose deprivation-induced cell death; type: functional, cell-based
[3] = system: Cortical neurone; experiment: Cytotoxicity against mouse embryonic cortical neurons assessed as reduction in cell viability; type: cell-based

## CCCCCC/C=C/[C@@H]1[C@H]2CC(CCCCC(=O)O)=C[C@H]2C[C@H]1O
[1]
  Activity: inactive
[2]
  Activity: inactive
[3]
  Activity: Toxic

## O=C(O)CCCCC1=C[C@H]2C[C@@H](O)[C@H](/C=C/Cc3ccccc3)[C@H]2C1
[1]
  Activity: inactive
[2]
  Activity: inactive
[3]
  Activity: Toxic

## CCCCCCCCCC/C=C/[C@@H]1[C@H]2CC(CCCCC(=O)O)=C[C@H]2C[C@H]1O
[1]
  Activity: inactive
[2]
  Activity: inactive
[3]
  Activity: Toxic

## C=C[C@@H]1[C@H]2CC(CCCCC(=O)O)=C[C@H]2C[C@H]1O
[1]
  Activity: inactive
[2]
  Activity: inactive
[3]
  Activity: Toxic

## CCCCC[C@H](O)/C=C/[C@@H]1[C@H]2CC(CCCCC(=O)O)=C[C@H]2C[C@H]1O
[1]
  Activity: inactive
[2]
  Activity: inactive
[3]
  Activity: Toxic
